Laboratory results reported in patent US10428082B2, “Triazole derivatives of melampomagnolide B and methods of use thereof” (BioVentures, LLC, priority 2016, dated 2019).
pEC50: −log10 of the molar value. Where two headings read alike, the source gives them in different places.

Tests used:
[1] = test system: NCI panel of 60 human cancer cell lines; test: NCI 60 growth inhibition, ranges over groups of cell lines; type: cell-based
Description: The above triazole derivatives of melampomagnolide B were evaluated for growth inhibitory properties against an NCI panel of 60 human cancer cell lines derived from nine human cancer cell types, grouped into disease sub-panels that represent leukemia, lung, colon, central nervous system (CNS), melanoma, renal, ovary, breast, and prostate cancer cells. Growth inhibitory (GI50) effects were measured as a function of the variation of optical density as a percentage of control.

SW-620 = test: NCI 60 growth inhibition; type: cell-based, human; conditions: Homo sapiens; SW-620, Colon Cancer, Table 2
RXF 393 = test: NCI 60 growth inhibition; type: cell-based, human; conditions: Homo sapiens
SF-539 = test: NCI 60 growth inhibition; type: cell-based, human; conditions: Homo sapiens; SF-539, CNS Cancer, Table 2
SF-268 = test: NCI 60 growth inhibition; type: cell-based, human; conditions: Homo sapiens; SF-268, CNS Cancer, Table 2
MDA-MB-468 = test: NCI 60 growth inhibition; type: cell-based, human; conditions: Homo sapiens; MDA-MB-468, Breast Cancer, Table 2
MOLT-4 = test: NCI 60 growth inhibition; type: cell-based, human; conditions: Homo sapiens; MOLT-4, Leukemia, Table 2
MALME-3M = test: NCI 60 growth inhibition; type: cell-based, human; conditions: Homo sapiens, Melanoma, Table 2
NCI-H23 = test: NCI 60 growth inhibition; type: cell-based, human; conditions: Homo sapiens; NCI-H23, Non-Small Cell Lung Cancer, Table 2
SNB-19 = test: NCI 60 growth inhibition; type: cell-based, human; conditions: Homo sapiens; SNB-19, CNS Cancer, Table 2
CCRF-CEM = test: NCI 60 growth inhibition; type: cell-based, human; conditions: Homo sapiens, Leukemia, Table 2
MDA-MB-435 = test: NCI 60 growth inhibition; type: cell-based, human; conditions: Homo sapiens; MDA-MB-435, Melanoma, Table 2
SNB-75 = test: NCI 60 growth inhibition; type: cell-based, human; conditions: Homo sapiens; SNB-75, CNS Cancer, Table 2
K-562 = test: NCI 60 growth inhibition; type: cell-based, human; conditions: Homo sapiens, K562; K-562, Leukemia, Table 2
BT-549 = test: NCI 60 growth inhibition; type: cell-based, human; conditions: Homo sapiens; BT-549, Breast Cancer, Table 2
OVCAR-5 = test: NCI 60 growth inhibition; type: cell-based, human; conditions: Homo sapiens; OVCAR-5, Ovarian Cancer, Table 2
HT29 = test: NCI 60 growth inhibition; type: cell-based, human; conditions: Homo sapiens; HT-29, Colon Cancer, Table 2
SK-MEL-28 = test: NCI 60 growth inhibition; type: cell-based, human; conditions: Homo sapiens; SK-MEL-28, Melanoma, Table 2
SK-OV-3 = test: NCI 60 growth inhibition; type: cell-based, human; conditions: Homo sapiens; SK-OV-3, Ovarian Cancer, Table 2
MDA-MB-231/ATCC = test: NCI 60 growth inhibition; type: cell-based, human; conditions: Homo sapiens, Breast Cancer, Table 2
ACHN = test: NCI 60 growth inhibition; type: cell-based, human; conditions: Homo sapiens, Renal Cancer, Table 2
[2] = test system: primary AML cell line AML2; test: Anti-leukemic activity, Annexin V/7-AAD flow cytometry; type: cell-based, human; conditions: for pEC50: Homo sapiens, 24 h, 24 h of drug exposure, read-out: AML#2 (EC50)
Description: (§1) The newly synthesized triazole derivatives of melampomagnolide B were screened for anti-leukemic activity against M9 ENL1 and primary AML cell lines; the latter were obtained with informed consent from human patients. Evaluations were performed after 24 h of drug exposure using flow cytometric analysis by labeling with Annexin V and 7-aminoactinomycin D (7-AAD) to delineate apoptotic cell populations. In all experiments PTL was included as a reference control.

[3] = test system: primary AML cell line AML1; test: as above; type: cell-based, human; conditions: for pEC50: Homo sapiens, AML1, 24 h, 24 h of drug exposure, read-out: AML#1 (EC50)
Description: as §1

HO-1 = test: Induction of HO-1 by Western blot assay; type: cell-based
NF-κB pathway = test: NF-κB inhibition by Western blot, phosphorylation of the P65 subunit; type: cell-based
Description: Also JVM 4-29 was evaluated for NF-κB inhibition by Western blot analysis; by determining its effect on the phosphorylation of the P65 subunit.

M9 ENL1 cell line = test: Anti-leukemic activity, Annexin V/7-AAD flow cytometry; type: cell-based; conditions: for pEC50: M9-ENL1, 24 h, 24 h of drug exposure, read-out: M9ENL1 (EC50)
Description: as §1

[4] = most of the solid tumor cell lines in the panel, read-out: GI50
[5] = RXF 393, RXF 393, Renal Cancer, Table 2

| Compound | GI50 (SW-620) [nM] | GI50 (RXF 393; [5]) [nM] | GI50 (SF-539) [nM] | GI50 (SF-268) [nM] | GI50 (MDA-MB-468) [nM] | GI50 (MOLT-4) [nM] | GI50 (MALME-3M) [nM] | GI50 (NCI-H23) [nM] | GI50 (SNB-19) [nM] | GI50 (CCRF-CEM) [nM] | GI50 (MDA-MB-435) [nM] | GI50 (SNB-75) [nM] | GI50 (K-562) [nM] | GI50 (BT-549) [nM] | GI50 (OVCAR-5) [nM] | GI50 (HT29) [nM] | GI50 (SK-MEL-28) [nM] | GI50 (SK-OV-3) [nM] | GI50 (MDA-MB-231/ATCC) [nM] | GI50 (ACHN) [nM] | also measured |
| --- | --- | --- | --- | --- | --- | --- | --- | --- | --- | --- | --- | --- | --- | --- | --- | --- | --- | --- | --- | --- | --- |
| C=C1C(=O)O[C@H]2[C@H]1CC/C(Cn1cc(-c3ccc(F)cc3)nn1)=C\CC[C@@]1(C)O[C@@H]21 [JVM 4-26] | 420 | 870 | 270 | 1690 | 420 | 380 | 1400 | 1780 | 3390 | 240 | 1000 | 1250 | 940 | 830 | 1470 | 690 | 820 | 9780 | 1220 | 180 | GI50 ([1]; leukemia cell lines CCRF-CEM, HL-60(TB), K-562, MOLT-4 and SR, read-out: growth inhibition values): 240 to 940 nM; GI50 [1, 4]: 180 to 940 nM; pEC50 [2]: 5.72; pEC50 [3]: 5.96 |
| C=C1C(=O)O[C@H]2[C@H]1CC/C(Cn1cc(-c3cc(C(F)(F)F)cc(C(F)(F)F)c3)nn1)=C\CC[C@@]1(C)O[C@@H]21 [JVM 4-29, (1aR,7aS,10aS,10bS,E)-5-((4-(3,5-bis(Trifluoromethyl)phenyl)-1H-1,2,3-triazol-1-yl)methyl)-1a-methyl-8-methylene-2,3,6,7,7a,8,10a,10b-octahydrooxireno[2′,3′:9,10]cyclodeca[1,2-b]furan-9(1aH)-one] | 190 | 20 | 170 | 1080 | 420 | 190 | 520 | 1120 | 1710 | 690 | 740 | 1260 | 230 | 170 | 1100 | 190 | 460 | 1860 | 330 | 160 | GI50 ([1]; all the cell lines in the leukemia sub-panel, read-out: GI50): 100 to 500 nM; GI50 [1, 4]: 120 to 880 nM; induction of HO-1 compared to PTL (HO-1): stronger induction of HO-1 when compared to PTL; inhibition of the NF-κB pathway compared to parthenolide (NF-κB pathway): significantly more potency as an inhibitor of the NF-κB pathway when compared to parthenolide; GI50 (RXF 393; RXF 393, RXF 393 renal cancer cell line): 27 nM; pEC50 [2]: 6.15; fold more cytotoxic compared to DMAPT ([2]; primary cell line AML2): 16.1 fold; fold more potent anti-leukemic activity than PTL ([2]; primary cell line AML2): 14.8 fold; fold more potent than the MMB ([2]; primary cell line AML2): 34.7 fold; pEC50 [3]: 6.40; fold more cytotoxic compared to DMAPT ([3]; primary cell line AML1): 36.7 fold; fold more potent anti-leukemic activity than PTL ([3]; primary cell line AML1): 32.7 fold; fold more potent than the MMB ([3]; primary cell line AML1): 51.2 fold; pEC50 (M9 ENL1 cell line): 6.22; cytotoxicity compared with parthenolide (M9 ENL1 cell line; M9 ENL1 cell assay): more cytotoxic than parthenolide; fold more potent than parthenolide (PTL) (M9 ENL1 cell line; M9 ENL1 cells): 8.6 fold |
| C=C1C(=O)O[C@H]2[C@H]1CC/C(Cn1cc(-c3ccc(OC)cc3)nn1)=C\CC[C@@]1(C)O[C@@H]21 [JVM 4-24, (1aR,7aS,10aS,10bS,E)-5((4-(4-Methoxyphenyl)-1H-1,2,3-triazol-1-yl)methyl)-1a-methyl-8-methylene-2,3,6,7,7a,8,10a,10b-octahydrooxireno[2′,3′:9,10]cyclodeca[1,2-b]furan-9(1aH)-one] | 490 | 700 | 340 | 2070 | 890 | 1130 | 1670 | 2060 | 6920 | 290 | 1140 | 1470 | 1300 | 1310 | 1710 | 1230 | 820 | 16300 | 1440 | 290 | GI50 ([1]; 60 cell, several cell lines in the NCI 60 cell panel, read-out: GI50): 200 to 990 nM; pEC50 [2]: 5.60; pEC50 [3]: 5.70; pEC50 (M9 ENL1 cell line): 5.85 |
